Test results: patent US9512120B2, “Microbicidally active imidazopyridine derivatives” (Syngenta Participations AG, priority 2013, dated 2016)

Experiments:
[1] = test system: Puccinia recondita f. sp. Tritici; experiment: Puccinia recondita f. sp. tritici / wheat / leaf disc preventative (brown rust); format: in vivo; conditions: foliar, wheat leaf segments cv Kanzler, inoculated 1 day after application, assessed 7-9 days after application, read-out: control of Puccinia recondita f. sp. Tritici (percent disease control compared to untreated)
Outline: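 Preventative test: percent disease control relative to untreated leaf segments was assessed 7-9 days post-application. Wheat (cv Kanzler) leaf discs were treated at 200 ppm and spore-inoculated 1 day afterwards. Discs were held at 19° C and 75% relative humidity under a 12/12 h light cycle.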

[2] = test system: Pyrenophora teres; experiment: Pyrenophora teres / barley / leaf disc preventative (net blotch); format: in vivo; conditions: foliar, barley leaf segments cv Hasso, inoculated two days after application, assessed 5-7 days after application, read-out: control of Pyrenophora teres (disease control compared to untreated)
Outline: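 Preventative leaf-disc test: 200 ppm spray, then spore inoculation after two days on barley cv Hasso segments. Incubation 20 °C, 65% relative humidity, 12 h light/12 h dark; efficacy rated against untreated checks at 5-7 days post-application.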

[3] = test system: Botryotinia fuckeliana (Botrytis cinerea); experiment: Botryotinia fuckeliana (Botrytis cinerea) / liquid culture (gray mould); format: cell-based; conditions: Vogels broth, 24° C., 3-4 days after application, read-out: control of Botryotinia fuckeliana (inhibition of growth, photometric)
Outline: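 Test compound was applied at 200 ppm in DMSO, then Vogels nutrient broth containing cryo-stored B. cinerea conidia was added. Photometric growth-inhibition reading followed after 3-4 days at 24 °C.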

[4] = test system: Mycosphaerella arachidis (Cercospora arachidicola); experiment: Mycosphaerella arachidis (Cercospora arachidicola) / liquid culture (early leaf spot); format: cell-based; conditions: PDB, 24° C., 4-5 days after application, read-out: control of Mycosphaerella arachidis (inhibition of growth, photometric)
Procedure: Mycosphaerella Arachidis (Cercospora arachidicola)/Liquid Culture (Early Leaf Spot): Conidia of the fungus from cryogenic storage were directly mixed into nutrient broth (PDB potato dextrose broth). After placing a DMSO solution of test compound into a 96-well microtiter plate at an application rate of 200 ppm, the nutrient broth containing the fungal spores was added. The test plates are incubated at 24° C. and the inhibition of growth was determined photometrically 4-5 days after application.

[5] = test system: Mycosphaerella graminicola (Septoria tritici); experiment: Mycosphaerella graminicola (Septoria tritici) / liquid culture (Septoria blotch); format: cell-based; conditions: Zymoseptoria tritici, PDB, 24° C., 4-5 days after application, read-out: control of Mycosphaerella graminicola (inhibition of growth, photometric)
Outline: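 Growth inhibition was read photometrically after 4–5 days at 24 °C. The test compound was applied at 200 ppm from DMSO solution, then PDB broth seeded with conidia taken straight from cryogenic storage was added.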

[6] = test system: Gaeumannomyces graminis; experiment: Gaeumannomyces graminis / liquid culture (take-all of cereals); format: cell-based; conditions: PDB, 24° C., 4-5 days after application, read-out: control of Gaeumannomyces graminis (inhibition of growth, photometric)
Outline: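 Growth inhibition, measured by photometry 4-5 days post-application at 24 °C, of fungal mycelial fragments in PDB broth. Test compound applied as DMSO solution at 200 ppm.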

[7] = test system: Thanatephorus cucumeris (Rhizoctonia solani); experiment: Thanatephorus cucumeris (Rhizoctonia solani) / liquid culture (foot rot, damping-off); format: cell-based; conditions: PDB, 24° C., 3-4 days after application, read-out: control of Thanatephorus cucumeris (inhibition of growth, photometric)
Outline: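 At 200 ppm, compounds in DMSO were combined with fresh liquid-culture mycelia in PDB and kept at 24° C; photometric measurement of growth inhibition after 3-4 days.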

[8] = test system: Monographella nivalis (Microdochium nivale); experiment: Monographella nivalis (Microdochium nivale) / liquid culture (foot rot cereals); format: cell-based; conditions: PDB, 24° C., 4-5 days after application, read-out: control of Monographella nivalis (inhibition of growth, photometric)
Outline: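 Cryostored conidia in potato dextrose broth were added to test compound dispensed from DMSO at 200 ppm. Plates were kept at 24° C, and growth inhibition was read photometrically 4-5 days after application.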

[9] = test system: Blumeria graminis f. Sp. Tritici (Erysiphe graminis f. Sp. Tritici); experiment: Blumeria graminis f. sp. tritici / wheat / leaf disc preventative (powdery mildew on wheat); format: in vivo; conditions: foliar, wheat leaf segments cv. Kanzler, inoculated 1 day after application, assessed 6-8 days after application, read-out: control of Blumeria graminis (percent disease control compared to untreated)
Procedure: Blumeria graminis f. Sp. Tritici (Erysiphe graminis f. Sp. Tritici)/Wheat/Leaf Disc Preventative (Powdery Mildew on Wheat):
Wheat leaf segments cv. Kanzler were placed on agar in a 24-well plate and sprayed with the formulated test compound diluted in water at an application rate of 200 ppm. The leaf disks were inoculated by shaking powdery mildew infected plants above the test plates 1 day after application. The inoculated leaf disks were incubated at 20° C. and 60% relative humidity under a light regime of 24 h darkness followed by 12 h/12 h (dark/light) in a climate chamber and the activity of a compound was assessed as percent disease control compared to untreated when an appropriate level of disease damage appears on untreated check leaf segments (6-8 days after application). The following compounds gave at least 80% control of Blumeria graminis at 200 ppm when compared to untreated control leaf disks under the same conditions, which show extensive disease development: 2, 13, 23, 50, 59, 61, 67, 75, 85, 86, 89, 90, 93, 102, 103, 107, 134, 136, 137, 138, 139, 141, 145, 151, 153, 154, 163, 173, 174

[10] = test system: Plasmopara viticola; experiment: Plasmopara viticola / grape / leaf disc preventative; format: in vivo; conditions: foliar, grape vine leaf disks, inoculated 1 day after application, assessed 6-8 days after application, read-out: control of Plasmopara viticola (percent disease control compared to untreated)
[11] = test system: Phaeosphaeria nodorum (Septoria nodorum); experiment: Phaeosphaeria nodorum (Septoria nodorum) / wheat / leaf disc preventative (glume blotch); format: in vivo; conditions: Parastagonospora nodorum, foliar, wheat leaf segments cv Kanzler, inoculated 2 days after application, assessed 5-7 days after application, read-out: control of Phaeosphaeria nodorum (percent disease control compared to untreated)
Outline: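 Wheat leaf segments (cv Kanzler) on agar sprayed with compound at 200 ppm, inoculated with spores 2 days later. Incubated at 20° C., 75% relative humidity, 12/12 h light/dark; percent disease control versus untreated scored 5-7 days after application.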

[12] = test system: Glomerella lagenarium (Colletotrichum lagenarium); experiment: Glomerella lagenarium (Colletotrichum lagenarium) / liquid culture (anthracnose); format: cell-based; conditions: Colletotrichum orbiculare, PDB, 24° C., 3-4 days after application, read-out: control of Glomerella lagenarium (inhibition of growth, photometric)
Outline: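 Test compound, delivered in DMSO at an application rate of 200 ppm, was combined with spore-containing PDB. Photometric growth-inhibition measurement followed 3-4 days of incubation at 24° C.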

[13] = test system: Sclerotinia sclerotiorum; experiment: Sclerotinia sclerotiorum liquid culture (cottony rot / white mold); format: cell-based; conditions: PDB, 24° C., 3-4 days after application, read-out: control of Sclerotinia sclerotiorum (inhibition of growth, photometric)
Outline: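 Mycelia fragments of Sclerotinia sclerotiorum in potato dextrose broth were added to compound in DMSO. Cultures incubated at 24° C; growth inhibition determined photometrically 3-4 days after application.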

| SMILES | pest or weed control at 200 ppm [1] | pest or weed control at 200 ppm [2] | inhibition at 20 ppm [3] | inhibition at 20 ppm [4] | inhibition at 20 ppm [5] | inhibition at 20 ppm [6] | inhibition at 20 ppm [7] | inhibition at 20 ppm [8] | pest or weed control at 200 ppm [9] | melting point | pest or weed control at 200 ppm [10] | pest or weed control at 200 ppm [11] | inhibition at 20 ppm [12] | inhibition at 20 ppm [13] |
| --- | --- | --- | --- | --- | --- | --- | --- | --- | --- | --- | --- | --- | --- | --- |
| CCON=C(C)c1cncc2nc(-n3ncnc3N)n(CC)c12 [Compound 134] | ≥ 80% | ≥ 80% | ≥ 80% | ≥ 80% | ≥ 80% | ≥ 80% | ≥ 80% | ≥ 80% | ≥ 80% | 160 to 165 °C |  |  |  |  |
| CCn1c(-n2ncnc2N)nc2cncc(-c3cncnc3)c21 [Compound 50, 2-(1-ethyl-7-pyrimidin-5-ylimidazo[4,5-c]pyridin-2-yl)-1,2,4-triazol-3-amine] |  |  |  |  |  |  |  |  | ≥ 80% |  |  |  |  |  |
| CCn1c(-n2ncnc2N)nc2cncc(C(C)=NOCC=C(Cl)Cl)c21 [Compound 155] | ≥ 80% | ≥ 80% | ≥ 80% | ≥ 80% | ≥ 80% |  | ≥ 80% | ≥ 80% |  |  | ≥ 80% | ≥ 80% | ≥ 80% | ≥ 80% |
| CCn1c(-n2ncnc2N)nc2cncc(C(C)=NO)c21 [Compound 136, 1-[2-(5-amino-1,2,4-triazol-1-yl)-1-ethyl-imidazo[4,5-c]pyridin-7-yl]ethanone oxime] |  | ≥ 80% |  |  |  | ≥ 80% |  |  | ≥ 80% | 228 to 240 °C |  |  | ≥ 80% |  |
| CCn1c(-n2ncnc2N)nc2cncc(-c3cccc4c3OC(F)(F)O4)c21 [Compound 48, 2-[7-(2,2-difluoro-1,3-benzodioxol-4-yl)-1-ethylimidazo[4,5-c]pyridin-2-yl]-1,2,4-triazol-3-amine] | ≥ 80% | ≥ 80% | ≥ 80% | ≥ 80% | ≥ 80% | ≥ 80% | ≥ 80% | ≥ 80% |  |  | ≥ 80% | ≥ 80% | ≥ 80% | ≥ 80% |
| CCn1c(-n2ncnc2N)nc2cncc(-c3ccc(C)cc3C)c21 [Compound 45, 2-[7-(2,4-dimethylphenyl)-1-ethylimidazo[4,5-c]pyridin-2-yl]-1,2,4-triazol-3-amine] | ≥ 80% | ≥ 80% | ≥ 80% | ≥ 80% | ≥ 80% |  | ≥ 80% |  |  |  | ≥ 80% | ≥ 80% |  |  |
| CCn1c(-n2ncnc2N)nc2cncc(C(C)=NOCc3ccccc3Cl)c21 [Compound 144] | ≥ 80% | ≥ 80% | ≥ 80% |  | ≥ 80% |  | ≥ 80% | ≥ 80% |  |  | ≥ 80% | ≥ 80% | ≥ 80% | ≥ 80% |
| CCn1c(-n2ncnc2N)nc2cncc(/C(C)=N\OCC(C)C)c21 [Compound 161] | ≥ 80% | ≥ 80% | ≥ 80% | ≥ 80% | ≥ 80% |  | ≥ 80% |  |  |  | ≥ 80% |  | ≥ 80% | ≥ 80% |
| CCn1c(-n2ncnc2N)nc2cncc(C(C)=NOCc3ccc(F)cc3)c21 [Compound 135] | ≥ 80% | ≥ 80% | ≥ 80% |  | ≥ 80% | ≥ 80% | ≥ 80% |  |  | 175 to 187 °C | ≥ 80% |  |  |  |
| CCn1c(-n2ncnc2N)nc2cncc(C(C)=NOCC3CC3)c21 [Compound 141] |  | ≥ 80% | ≥ 80% | ≥ 80% | ≥ 80% | ≥ 80% | ≥ 80% |  | ≥ 80% | 151 to 163 °C |  |  | ≥ 80% |  |
| CCn1c(-n2ncnc2N)nc2cncc(C3CC(c4ccccc4)=NO3)c21 (stereo not drawn) [Compound 109, 2-[1-ethyl-7-(3-phenyl-4,5-dihydro-1,2-oxazol-5-yl)imidazo[4,5-c]pyridin-2-yl]-1,2,4-triazol-3-amine] | ≥ 80% | ≥ 80% | ≥ 80% |  | ≥ 80% | ≥ 80% | ≥ 80% |  |  | 201 to 209 °C | ≥ 80% |  |  |  |
| CCn1c(-n2ncnc2N)nc2cncc(C3=CCN(C(=O)OC(C)(C)C)CC3)c21 [Compound 107, tert-butyl 4-[2-(5-amino-1,2,4-triazol-1-yl)-1-ethylimidazo[4,5-c]pyridin-7-yl]-3,6-dihydro-2H-pyridine-1-carboxylate] |  |  |  |  |  |  |  |  | ≥ 80% | 183 to 186 °C |  |  |  |  |
| C=CCON=C(C)c1cncc2nc(-n3ncnc3N)n(CC)c12 [Compound 138] |  | ≥ 80% | ≥ 80% |  | ≥ 80% | ≥ 80% | ≥ 80% | ≥ 80% | ≥ 80% | 142 to 146 °C |  |  | ≥ 80% |  |
